In patent US5078135A, “Apparatus for in vivo analysis of biological compounds in blood or tissue by microdialysis and mass spectrometry” (Board of Regents, The University of Texas System, priority 1989, dated 1992):

Key:
[1] = in vivo pharmacokinetic analysis of free drug by microdialysis / CF-FAB mass spectrometry (jugular vein probe, rat); set-up: species or system Sprague Dawley male rat; settings: 330 gram rat, 15 milligrams sodium penicillin G in 0.3 milliliters saline, injected
Source text: Referring to FIG. 1, the present invention applied to detect drug and metabolite levels in a rat is disclosed. It should be emphasized that the present apparatus and method can be applied to other animals, including humans. Microdialysis probe 11 is inserted inside a 22-gauge needle cannula (not shown) surgically placed in the jugular vein of a 330 gram Sprague Dawley male rat 12. A microliter syringe pump 13 is connected to microdialysis probe 11 by tube 14 and is used to controllably provide perfusate to microdialysis probe 11 through tube 14. Syringe pump 13 can be a Model 2274 pump available from the Harvard Apparatus Co., of Milford, Mass. In the preferred embodiment, the perfusate is 95% water and 5% glycerol provided at a rate of 4.8+/-0.2 microliters per minute.
The dialysate output from microdialysis probe 11 is connected through tube 16 to injection switch valve 17 which can be, for example, a Rheodyne Model 7410 injection switch valve. During collection, injection switch valve 17 is positioned so that dialysate passing through tube 16 passes through 20 microliter collection loop 18. […]
A 330 gram rat was injected with a dose of 15 milligrams of sodium penicillin G dissolved in 0.3 milliliters of physiological saline solution. Negative ions were recorded in the mass spectrometric analysis of the dialysate in order to obtain maximum sensitivity. […]

[2] = intramuscular administration; broken curve 43 in FIG. 4; cited from earlier work

For `CC1(C)S[C@@H]2[C@H](NC(=O)Cc3ccccc3)C(=O)N2[C@H]1C(=O)O` [sodium penicillin G], the “peak concentration of free drug (non-protein bound)” value [1] is given as “approximately 24 micrograms per milliliter”, the “time of peak concentration of free drug” value [1] is given as “about 30 minutes” and the “time to peak, published data” value [2] is given as 26 to 30 min.
